In patent US10137170B2, “Lipidated incretin receptor ligand human immunoglobulin Fc-region fusion polypeptides” (INDIANA UNIVERSITY RESEARCH AND TECHNOLOGY CORPORATION, priority 2013, dated 2018):
Starred links: 1 amine or outer side, 2 acyl side, 3 side chain; linkers in the order of their positions; H or OH if unused. Positions of bridges follow the written chain, without caps; N, C: chain ends. Non-standard residues stand in square brackets, D forms with d. Groups on a side chain read outwards from the residue. Chains are numbered I, II in the order given. *: point of attachment. γGlu = O=C(O)[C@H](CCC(=O)[*:2])N[*:1]; Desaminotyrosyl = O=C(CCc1ccc(O)cc1)*; Palmitoyl = CCCCCCCCCCCCCCCC(=O)*; X1 = O=C(C[*:1])[*:2]; Aib = CC(C)(N)C(=O)O

Tests used:
Type in all cases: cell-based
human GLP-R = biological target: T1, human GLP-R (Homo sapiens, UniProt P43220); experiment: Cyclic AMP (cAMP) assay, cell-suspension format, stably expressed human GLP-1-receptor in CHO cells
T1 construct: host or cells: CHO-K1 (cAMP Hunter)
Protocol: (§1) On the day of the experiment, the medium was removed and the cell monolayer was washed with 10 mL phosphate buffered saline (PBS) per flask. […] The flask was gently tapped and the cell suspension was pooled. The cell suspension was centrifuged for 3 min. at 150×g, and supernatant was discarded. The cell pellet was resuspended in assay buffer and cell number determined. Cell concentration was adjusted to 2×10^5 cells/mL. A 25 μL cell suspension aliquot was transferred into each well of a 96-well plate using Multi-drop dispenser (5000 cells/well). A 25 μL aliquot of diluted compound was transferred to the cell plate and the cell suspension incubated for 30 min. at RT on a plate shaker (450 rpm). The reaction was stopped by addition of lysis buffer and cAMP generated was determined using the cAMP dynamic 2 kit from Cisbio following the manufacturer's instructions. The time resolved fluorescence signal was determined using an EnVision (PerkinElmer). Cyclic AMP production was calculated based on standard curve run in parallel for every experiment. Data were analyzed using Excel Fit software.

GIP-R = biological target: T2, GIP-R (Homo sapiens, UniProt P48546); experiment: Cyclic AMP (cAMP) assay, cell-suspension format, stably expressed human GIP-receptor in CHO cells
T2 construct: host or cells: CHO-K1 (cAMP Hunter)
T2 sequence (P48546 22-466): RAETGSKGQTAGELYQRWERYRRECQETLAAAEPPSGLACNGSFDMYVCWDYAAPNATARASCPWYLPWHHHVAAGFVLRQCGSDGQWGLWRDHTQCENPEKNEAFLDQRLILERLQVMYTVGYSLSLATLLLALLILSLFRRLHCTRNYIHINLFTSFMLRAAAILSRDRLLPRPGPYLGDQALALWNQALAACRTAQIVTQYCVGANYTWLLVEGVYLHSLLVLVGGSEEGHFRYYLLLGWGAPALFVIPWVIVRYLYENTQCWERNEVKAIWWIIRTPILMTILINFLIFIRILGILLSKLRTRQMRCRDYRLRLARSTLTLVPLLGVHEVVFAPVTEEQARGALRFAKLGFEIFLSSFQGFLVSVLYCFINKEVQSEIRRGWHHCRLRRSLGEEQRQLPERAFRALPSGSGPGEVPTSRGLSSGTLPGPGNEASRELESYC
Protocol: as §1

human GCG-R = biological target: T3, human GCG-R (Homo sapiens, UniProt P47871); experiment: Cyclic AMP (cAMP) assay, cell-suspension format, stably expressed human GCG-receptor in CHO cells; settings: for EC50: Table 1, cAMP, CHO cells
T3 construct: host or cells: CHO-K1 (cAMP Hunter)
Protocol: as §1

[1] = Table 1, relative to GLP-1 maximum
[2] = Table 1, relative to GIP maximum
[3] = Table 1, relative to GCG maximum

T3 sequence (P47871 26-477): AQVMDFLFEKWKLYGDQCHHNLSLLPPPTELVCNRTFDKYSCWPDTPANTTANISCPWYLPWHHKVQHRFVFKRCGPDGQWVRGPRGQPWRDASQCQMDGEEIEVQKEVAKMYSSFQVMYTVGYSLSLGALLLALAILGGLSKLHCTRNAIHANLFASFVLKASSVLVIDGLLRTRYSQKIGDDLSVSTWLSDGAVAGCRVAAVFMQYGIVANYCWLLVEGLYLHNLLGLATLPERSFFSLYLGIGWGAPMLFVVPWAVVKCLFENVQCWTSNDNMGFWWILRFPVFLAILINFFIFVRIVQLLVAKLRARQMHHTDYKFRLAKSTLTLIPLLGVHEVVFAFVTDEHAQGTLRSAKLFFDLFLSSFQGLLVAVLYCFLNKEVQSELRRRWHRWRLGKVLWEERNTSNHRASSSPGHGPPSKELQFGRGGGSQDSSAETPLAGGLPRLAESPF
T1 sequence (P43220 24-463): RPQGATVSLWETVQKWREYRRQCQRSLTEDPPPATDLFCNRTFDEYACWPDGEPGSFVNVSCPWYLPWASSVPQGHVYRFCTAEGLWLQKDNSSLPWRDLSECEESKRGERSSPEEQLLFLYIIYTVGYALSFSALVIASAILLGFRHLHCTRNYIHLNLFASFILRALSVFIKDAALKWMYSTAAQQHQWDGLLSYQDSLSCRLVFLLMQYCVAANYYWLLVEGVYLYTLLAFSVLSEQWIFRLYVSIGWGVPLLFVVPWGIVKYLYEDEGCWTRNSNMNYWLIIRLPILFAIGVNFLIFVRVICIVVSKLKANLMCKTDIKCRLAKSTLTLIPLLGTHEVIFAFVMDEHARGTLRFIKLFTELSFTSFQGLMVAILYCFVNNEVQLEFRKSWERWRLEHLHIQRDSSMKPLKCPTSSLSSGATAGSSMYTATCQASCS

I: Desaminotyrosyl-AEGTFTSDK([γGlu-Palmitoyl])SKYLDERAAQDFVQWLLEGGPSSGAPPPSC-NH2 / II: GGGLPETGGSGS-OH (linker I:39-II:N via X1) [compound 11]
human GLP-R % max GLP-1 (human GLP-R; comparative table): 67%
human GIP-R % max GIP (GIP-R; comparative table): 83%
human GCG-R % max GCG (human GCG-R; comparative table): 28%

Dulaglutide [reference compound]
EC50 (human GLP-R; Table 1, cAMP, CHO cells): 0.129 nM
human GLP-R % max GLP-1 (human GLP-R; [1]): 98.2%
EC50 (GIP-R; Table 1, cAMP, CHO cells): > 600 nM
human GIP-R % max GIP (GIP-R; [2]): 13.8%
EC50 (human GCG-R): > 600 nM
human GCG-R % max GCG (human GCG-R; [3]): 1.6%

I: Ac-[dY]ALGTFTSDK([γGlu-Palmitoyl])SKYLDERAAQDFVQWLLEGGPSSGAPPPSC-NH2 / II: GGGLPETGGSGS-OH (linker I:40-II:N via X1) [compound 12]
human GLP-R % max GLP-1 (human GLP-R; comparative table): 94%
human GIP-R % max GIP (GIP-R; comparative table): 90%
human GCG-R % max GCG (human GCG-R; comparative table): 100%

I: Ac-[dY]AVGTFTSDK([γGlu-Palmitoyl])SKYLDERAAQDFVQWLLEGGPSSGAPPPSC-NH2 / II: GGGLPETGGSGS-OH (linker I:40-II:N via X1) [compound 13]
human GLP-R % max GLP-1 (human GLP-R; comparative table): 73%
human GIP-R % max GIP (GIP-R; comparative table): 91%
human GCG-R % max GCG (human GCG-R; comparative table): 99%

I: H-Y[Aib]EGTFTSDK([γGlu-γGlu-Palmitoyl])SIYLDKQAA[Aib]EFVNWLLAGGPSSGAPPPSC-NH2 / II: GGGLPETGGSGS-OH (linker I:40-II:N via X1) [compound 9]
human GLP-R % max GLP-1 (human GLP-R; [1]): 99.9%
human GLP-R % max GLP-1 (human GLP-R; comparative table): 91%
human GIP-R % max GIP (GIP-R; [2]): 90.7%
EC50 (GIP-R; comparative table): 0.01 nM
human GIP-R % max GIP (GIP-R; comparative table): 100%
EC50 (human GCG-R): 8.86 nM
human GCG-R % max GCG (human GCG-R; [3]): 109.0%
human GCG-R % max GCG (human GCG-R; comparative table): 109%

I: H-Y[Aib]EGTFTSDK([γGlu-γGlu-Palmitoyl])SIYLDKQAA[Aib]EFVNWLLAGGPSSGAPPPSC-NH2 / II: LPETGGSGS-OH (linker I:40-II:N via X1) [compound 10]
human GLP-R % max GLP-1 (human GLP-R; [1]): 96.7%
EC50 (human GLP-R; comparative table): 0.02 nM
human GLP-R % max GLP-1 (human GLP-R; comparative table): 96%
human GIP-R % max GIP (GIP-R; [2]): 86.7%
EC50 (GIP-R; comparative table): 0.01 nM
human GIP-R % max GIP (GIP-R; comparative table): 97%
human GCG-R % max GCG (human GCG-R; [3]): 100.2%
human GCG-R % max GCG (human GCG-R; comparative table): 98%
